Measured values published in patent publication US20260200939A1, “MOLECULAR GLUE DEGRADER COMPOUNDS AND USES THEREOF” (Novartis AG, priority 2022, published 2026).

Columns and labels:
BRD4 short = target: T1, BRD4 short (Homo sapiens, UniProt O60885); experiment: BRD4 (short) degradation assay, Western blotting; format: cell-based
T1 construct: endogenous in cells; host or cells: HEK293T
In short: (§1)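 Cell lines were grown at 37° C with 5% CO2 (HEK293T and C33A in DMEM, A549 in F-12K, 22RV1, LNCaP and Mino in RPMI-1640, K562 and MV-4-11 in IMDM, all with 10% FBS). Lysates were BCA-normalized, then SDS/PAGE Western blots were probed with target-specific antibodies and read by IR680/IR800 fluorescent secondaries on Li-Cor.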

BRD4 long = target: T2, BRD4 long (Homo sapiens, UniProt O60885); experiment: BRD4 (long) degradation assay, Western blotting; format: cell-based
T2 construct: endogenous in cells; host or cells: HEK293T
In short: as §1

[1] = second value of cell, range with lower bound in nM and upper bound in μM
[2] = first value of cell, range with lower bound in nM and upper bound in μM
[3] = second value of cell (long/short)
[4] = first value of cell (long/short)

Question: What does the source list for `COc1ccc(C(=O)/C=C/C(=O)N2CCCN(C(=O)C[C@@H]3N=C(c4ccc(Cl)cc4)c4c(sc(C)c4C)-n4c(C)nnc43)CC2)cc1` [Compound 219, (S,E)-1-(4-(2-(4-(4-chlorophenyl)-2,3,9-trimethyl-6H-thieno[3,2-f][1,2,4]triazolo[4,3-a][1,4]diazepin-6-yl)acetyl)-1,4-diazepan-1-yl)-4-(4-methoxyphenyl)but-2-ene-1,4-dione]?
Answer: DC50 (BRD4 short; [1]): 100 to 1000 nM; DC50 (BRD4 long; [2]): 100 to 1000 nM

Question: For `COc1ccc(C(=O)/C=C/C(=O)N2CCN(C(=O)C[C@@H]3N=C(c4ccc(Cl)cc4)c4c(sc(C)c4C)-n4c(C)nnc43)CC2)c(F)c1` [Compound 233, (S,E)-1-(4-(2-(4-(4-chlorophenyl)-2,3,9-trimethyl-6H-thieno[3,2-f][1,2,4]triazolo[4,3-a][1,4]diazepin-6-yl)acetyl)piperazin-1-yl)-4-(2-fluoro-4-methoxyphenyl)but-2-ene-1,4-dione], which DC50 (BRD4 short; [3]) is on record?
Answer: The DC50 was < 100 nM.

Question: What about the DC50 (BRD4 long; [4]) of the same compound?
Answer: The DC50 was < 100 nM.

Question: How did the DC50 (BRD4 short; [1]) turn out when `Cc1sc2c(c1C)C(c1ccc(Cl)cc1)=N[C@@H](CC(=O)N[C@H]1C[C@H](NC(=O)/C=C/C(=O)c3ccc4c(c3)OCC4)C1)c1nnc(C)n1-2` [Compound 209, (E)-N-((1S,3r)-3-(2-((S)-4-(4-chlorophenyl)-2,3,9-trimethyl-6H-thieno[3,2-f][1,2,4]triazolo[4,3-a][1,4]diazepin-6-yl)acetamido)cyclobutyl)-4-(2,3-dihydrobenzofuran-6-yl)-4-oxobut-2-enamide] was run?
Answer: Its DC50 is 100 to 1000 nM.

Question: And the DC50 (BRD4 long; [2])?
Answer: Its DC50 is 100 to 1000 nM.

Question: Which results are given for `COc1ccc(C(=O)/C=C(\C)C(=O)N2CCN(C(=O)C[C@@H]3N=C(c4ccc(Cl)cc4)c4c(sc(C)c4C)-n4c(C)nnc43)CC2)cc1` [Compound 141, (S,E)-1-(4-(2-(4-(4-chlorophenyl)-2,3,9-trimethyl-6H-thieno[3,2-f][1,2,4]triazolo[4,3-a][1,4]diazepin-6-yl)acetyl)piperazin-1-yl)-4-(4-methoxyphenyl)-2-methylbut-2-ene-1,4-dione]?
Answer: DC50 (BRD4 short; [3]): > 1000 nM; DC50 (BRD4 long; [4]): > 1000 nM

Question: Which DC50 (BRD4 short; [3]) does the source give for `Cc1sc2c(c1C)C(c1ccc(Cl)cc1)=N[C@@H](CC(=O)N1CCN(C(=O)/C=C/C(=O)c3ccc4c(c3)CCO4)CC1)c1nnc(C)n1-2` [Compound 210, (S,E)-1-(4-(2-(4-(4-chlorophenyl)-2,3,9-trimethyl-6H-thieno[3,2-f][1,2,4]triazolo[4,3-a][1,4]diazepin-6-yl)acetyl)piperazin-1-yl)-4-(2,3-dihydrobenzofuran-5-yl)but-2-ene-1,4-dione] here?
Answer: Its DC50 is < 100 nM.

Question: And the DC50 (BRD4 long; [4])?
Answer: Its DC50 is < 100 nM.

Question: With `Cc1sc2c(c1C)C(c1ccc(Cl)cc1)=N[C@@H](CC(=O)N[C@H]1C[C@@H](NC(=O)/C=C/C(=O)N3CCOCC3)C1)c1nnc(C)n1-2` [Compound 249, (E)-N-((1R,3s)-3-(2-((S)-4-(4-chlorophenyl)-2,3,9-trimethyl-6H-thieno[3,2-f][1,2,4]triazolo[4,3-a][1,4]diazepin-6-yl)acetamido)cyclobutyl)-4-morpholino-4-oxobut-2-enamide] as the compound, how does the DC50 (BRD4 short; [3]) read?
Answer: Its DC50 is > 5000 nM.

Question: What about the DC50 (BRD4 long; [4]) of the same compound?
Answer: The DC50 was > 5000 nM.

Question: What does the source list for `Cc1sc2c(c1C)C(c1ccc(Cl)cc1)=N[C@@H](CC(=O)N[C@H]1C[C@H](NC(=O)/C=C/C(=O)c3cccc(Cl)c3Cl)C1)c1nnc(C)n1-2` [Compound 287, (E)-N-((1S,3r)-3-(2-((S)-4-(4-chlorophenyl)-2,3,9-trimethyl-6H-thieno[3,2-f][1,2,4]triazolo[4,3-a][1,4]diazepin-6-yl)acetamido)cyclobutyl)-4-(2,3-dichlorophenyl)-4-oxobut-2-enamide]?
Answer: DC50 (BRD4 short; [3]): 1000 to 5000 nM; DC50 (BRD4 long; [4]): 1000 to 5000 nM

Question: How did the DC50 (BRD4 short; [3]) turn out when `COc1ccc(C(=O)/C=C/C(=O)N2CCN(C(=O)C[C@@H]3N=C(c4ccc(Cl)cc4)c4c(sc(C)c4C)-n4c(C)nnc43)[C@H](C)C2)cc1` [Compound 218, (E)-1-((R)-4-(2-((S)-4-(4-chlorophenyl)-2,3,9-trimethyl-6H-thieno[3,2-f][1,2,4]triazolo[4,3-a][1,4]diazepin-6-yl)acetyl)-3-methylpiperazin-1-yl)-4-(4-methoxyphenyl)but-2-ene-1,4-dione] was run?
Answer: Its DC50 is < 10 nM.

Question: And the DC50 (BRD4 long; [4])?
Answer: Its DC50 is < 10 nM.

Question: How did the DC50 (BRD4 short; [3]) turn out when `COc1ccc(C(=O)/C=C/C(=O)N2CC3(CCN(C(=O)C[C@@H]4N=C(c5ccc(Cl)cc5)c5c(sc(C)c5C)-n5c(C)nnc54)CC3)C2)cc1` [Compound 227, (S,E)-1-(7-(2-(4-(4-chlorophenyl)-2,3,9-trimethyl-6H-thieno[3,2-f][1,2,4]triazolo[4,3-a][1,4]diazepin-6-yl)acetyl)-2,7-diazaspiro[3.5]nonan-2-yl)-4-(4-methoxyphenyl)but-2-ene-1,4-dione] was run?
Answer: The DC50 was 10 to 100 nM.

Question: And the DC50 (BRD4 long; [4])?
Answer: Its DC50 is 10 to 100 nM.

Question: What does the source list for `Cc1sc2c(c1C)C(c1ccc(Cl)cc1)=N[C@@H](CC(=O)N1CCN(C(=O)/C=C/C(=O)N3CCN(C)CC3)CC1)c1nnc(C)n1-2` [Compound 245, (S,E)-1-(4-(2-(4-(4-chlorophenyl)-2,3,9-trimethyl-6H-thieno[3,2-f][1,2,4]triazolo[4,3-a][1,4]diazepin-6-yl)acetyl)piperazin-1-yl)-4-(4-methylpiperazin-1-yl)but-2-ene-1,4-dione]?
Answer: DC50 (BRD4 short; [3]): > 5000 nM; DC50 (BRD4 long; [4]): > 5000 nM

Question: `COc1ccc(C(=O)/C=C/C(=O)N2C[C@@H]3CN(C(=O)C[C@@H]4N=C(c5ccc(Cl)cc5)c5c(sc(C)c5C)-n5c(C)nnc54)[C@@H]3C2)cc1` [Compound 213, (E)-1-((1R,5S)-6-(2-((S)-4-(4-chlorophenyl)-2,3,9-trimethyl-6H-thieno[3,2-f][1,2,4]triazolo[4,3-a][1,4]diazepin-6-yl)acetyl)-3,6-diazabicyclo[3.2.0]heptan-3-yl)-4-(4-methoxyphenyl)but-2-ene-1,4-dione] was tested. Which DC50 (BRD4 short; [1]) did it give?
Answer: Its DC50 is 100 to 1000 nM.

Question: What about the DC50 (BRD4 long; [2]) of the same compound?
Answer: The DC50 was 100 to 1000 nM.

Question: Which results are given for `COc1ccc(C(=O)/C=C/C(=O)N2CCN(C(=O)C[C@@H]3N=C(c4ccc(Cl)cc4)c4c(sc(C)c4C)-n4c(C)nnc43)[C@@H](C)C2)cc1` [Compound 216, (E)-1-((S)-4-(2-((S)-4-(4-chlorophenyl)-2,3,9-trimethyl-6H-thieno[3,2-f][1,2,4]triazolo[4,3-a][1,4]diazepin-6-yl)acetyl)-3-methylpiperazin-1-yl)-4-(4-methoxyphenyl)but-2-ene-1,4-dione]?
Answer: DC50 (BRD4 short; [3]): < 10 nM; DC50 (BRD4 long; [4]): < 10 nM

Question: Which DC50 (BRD4 short; [3]) does the source give for `COc1ccc(/C=C/S(=O)(=O)N2CCN(C(=O)C[C@@H]3N=C(c4ccc(Cl)cc4)c4c(sc(C)c4C)-n4c(C)nnc43)CC2)cc1` [Compound 279, (S,E)-2-(4-(4-chlorophenyl)-2,3,9-trimethyl-6H-thieno[3,2-f][1,2,4]triazolo[4,3-a][1,4]diazepin-6-yl)-1-(4-((4-methoxystyryl)sulfonyl)piperazin-1-yl)ethan-1-one] here?
Answer: Its DC50 is > 5000 nM.

Question: And the DC50 (BRD4 long; [4])?
Answer: The DC50 was > 5000 nM.

Question: What does the source list for `COc1ccc(C(=O)/C=C/C(=O)N[C@H]2C[C@H](NC(=O)CC3N=C(c4ccc(Cl)cc4)c4c(sc(C)c4C)-n4c(C)nnc43)C2)c(F)c1` (stereo partly drawn) [Compound 234, (E)-N-((1S,3r)-3-(2-((S)-4-(4-chlorophenyl)-2,3,9-trimethyl-6H-thieno[3,2-f][1,2,4]triazolo[4,3-a][1,4]diazepin-6-yl)acetamido)cyclobutyl)-4-(2-fluoro-4-methoxyphenyl)-4-oxobut-2-enamide]?
Answer: DC50 (BRD4 short; [3]): 150 nM; DC50 (BRD4 long; [4]): 50 nM

Question: For `COc1ccc(C(=O)/C=C/C(=O)N2CC3CC(C2)CN(C(=O)C[C@@H]2N=C(c4ccc(Cl)cc4)c4c(sc(C)c4C)-n4c(C)nnc42)C3)cc1` [Compound 229, (E)-1-(7-(2-((S)-4-(4-chlorophenyl)-2,3,9-trimethyl-6H-thieno[3,2-f][1,2,4]triazolo[4,3-a][1,4]diazepin-6-yl)acetyl)-3,7-diazabicyclo[3.3.1]nonan-3-yl)-4-(4-methoxyphenyl)but-2-ene-1,4-dione], which DC50 (BRD4 short; [1]) is on record?
Answer: Its DC50 is 100 to 1000 nM.

Question: And the DC50 (BRD4 long; [2])?
Answer: The DC50 was 100 to 1000 nM.
